# Patent US3996205A, “Aminoglycoside antibiotics and intermediates” (The Upjohn Company, priority 1975, dated 1976)
# How the values were obtained:
# K. pneumoniae UC 58 = assay: microplate test in BHI agar, K. pneumoniae UC 58; type: cell-based; details: tested again (table 4), same conditions
# Method: (§1) Compounds were also tested in a standard microplate test in Brain Heart Infusion (BHI) Agar, at a concentration of 1 mg/ml. Incubation is at 37° and end points are read at 20 hours. Brain Heart Infusion Agar (supplied by Difco Laboratories, Detroit, Michigan, U.S.A.) has the following composition:
# (§2) Compounds (7β), (7α) and (9) were tested again along with compounds (11) and (14β) against a neamine control using the same conditions as given above.
# S. typhi TG-3 = assay: microplate test in BHI agar, S. typhi TG-3; type: cell-based; details: table 4, same conditions
# Method: as §1, §2
# P. rettgeri UC 339 = assay: microplate test in BHI agar, P. rettgeri UC 339; type: cell-based; details: table 4, same conditions
# Method: as §1, §2
# S. hemolyticus UC 152 = assay: microplate test in BHI agar, S. hemolyticus UC 152; type: cell-based, Streptococcus hemolyticus; details: tested again (table 4), same conditions
# Method: as §1, §2
structure (smiles),measurement,setting,value
"NC[C@H]1O[C@H](O[C@H]2[C@H](O)[C@@H](O)[C@H](N)C[C@@H]2N)[C@H](N)[C@@H](O)[C@@H]1O [Neamine, neamine]",Minimum Inhibitory Concentration,K. pneumoniae UC 58,3.9 µg/mL
same,Minimum Inhibitory Concentration,S. typhi TG-3,15.6 µg/mL
same,Minimum Inhibitory Concentration,P. rettgeri UC 339,1000 µg/mL
same,Minimum Inhibitory Concentration,S. hemolyticus UC 152,3.9 µg/mL
